Values of other authors, collected in patent US9456994B2, “Efficient process for the preparation of lycopene containing oleoresin and lycopene crystals for human consumption” (OMNIACTIVE HEALTH TECHNOLOGIES LIMITED, priority 2011, dated 2016).

Experiments:
[1] = organic solvents

lycopene lost (heated at 100 degree C in the presence of carbon dioxide): 5%
lycopene degraded (heated at 100 degree C in the presence of oxygen): More than 30%
SMILES: CC(C)=CCC/C(C)=C/C=C/C(C)=C/C=C/C(C)=C/C=C/C=C(C)/C=C/C=C(C)/C=C/C=C(\C)CCC=C(C)C [lycopene, Lycopene]
solubility [1]: soluble in chloroform, hexane, benzene, carbon disulphide, acetone, petroleum ether
